Here are results for 24 compounds from patent US11161844B2, “Cyclic substituted imidazo[4,5-c]quinoline derivatives” (Pfizer Inc., priority 2017, dated 2021).

Test [1] has as its target LRRK2, WT (GST-tagged truncated LRRK2) (Homo sapiens (Human), UniProt Q5S007). Description: LRRK2 kinase assay (Lantha Screen), wild type. Format: biochemical. The following applies: 100 nM LRRKtide, 1 mM ATP, 2 μg/mL enzyme; geometric mean of 2-4 determinations unless otherwise indicated. On the procedure:
(§1) LRRK2 kinase activity was measured using Lantha Screen technology from Invitrogen. GST-tagged truncated LRRK2 from Invitrogen (Cat #PV4874) was incubated with a fluorescein-labeled peptide substrate based upon ezrin/radixin/moesin (ERM), also known as LRRKtide (Invitrogen cat #PR8976A), in the presence of a dose response of compound. Upon completion, the assay was stopped and detected with a terbium labeled anti-phospho-ERM antibody (Invitrogen, cat #PR8975A). The assay was carried out under the following protocol: The compound dose response was prepared by diluting compound to a top concentration of 0.3 mM in 100% DMSO and serial diluted by half-log in DMSO to give an 11 point curve, 100× final assay concentration. Using Echo acoustic dispensing, 60 nL of compound was transferred to a low volume Corning 384-well assay plate. 3 μL of a working solution of substrate (200 nM LRRKtide, 2 mM ATP) prepared in assay buffer (50 mM HEPES, pH 7.5, 3 mM MgCl2, with 2 mM DTT and 0.01% Brij35 added fresh) was added to the 60 nL compound assay plate. The kinase reaction was started with 3 μL of a working solution of LRRK2 enzyme at a concentration of 4 μg/mL. The final reaction concentrations were 100 nM LRRKtide, 1 mM ATP, 2 μg/mL LRRK2 enzyme and a compound dose response with a top dose of 3 μM. The reaction was allowed to progress at room temperature for 30 minutes and then stopped with the addition of 6 μL of detection buffer (20 mM Tris pH 7.6, 0.01% NP-40, 6 mM EDTA with 2 nM terbium labeled anti-phospho-ERM). After an incubation of 1 hour at room temperature, the plate was read on an Envision with an excitation wavelength of 340 nm and a reading emission at both 520 nm and 495 nm. The ratio of the 520 nm and 495 nm emission was used to analyze the data. Inhibition of mutant G2019S LRRK2 (Invitrogen cat #PV4881) was measured in the exact same method. All final concentrations of substrate ATP and enzyme were the same.

In another test the target is mutant G2019S LRRK2 (Homo sapiens (Human), UniProt Q5S007, G2019S). Description: LRRK2 kinase assay (Lantha Screen), mutant G2019S. Format: biochemical. The following applies: 100 nM LRRKtide, 1 mM ATP, 2 μg/mL enzyme; single determination unless otherwise indicated. Here is the method:
as §1

The structures appear in SMILES notation.

LRRK2, WT (GST-tagged truncated LRRK2), sequence (Q5S007 970-2527): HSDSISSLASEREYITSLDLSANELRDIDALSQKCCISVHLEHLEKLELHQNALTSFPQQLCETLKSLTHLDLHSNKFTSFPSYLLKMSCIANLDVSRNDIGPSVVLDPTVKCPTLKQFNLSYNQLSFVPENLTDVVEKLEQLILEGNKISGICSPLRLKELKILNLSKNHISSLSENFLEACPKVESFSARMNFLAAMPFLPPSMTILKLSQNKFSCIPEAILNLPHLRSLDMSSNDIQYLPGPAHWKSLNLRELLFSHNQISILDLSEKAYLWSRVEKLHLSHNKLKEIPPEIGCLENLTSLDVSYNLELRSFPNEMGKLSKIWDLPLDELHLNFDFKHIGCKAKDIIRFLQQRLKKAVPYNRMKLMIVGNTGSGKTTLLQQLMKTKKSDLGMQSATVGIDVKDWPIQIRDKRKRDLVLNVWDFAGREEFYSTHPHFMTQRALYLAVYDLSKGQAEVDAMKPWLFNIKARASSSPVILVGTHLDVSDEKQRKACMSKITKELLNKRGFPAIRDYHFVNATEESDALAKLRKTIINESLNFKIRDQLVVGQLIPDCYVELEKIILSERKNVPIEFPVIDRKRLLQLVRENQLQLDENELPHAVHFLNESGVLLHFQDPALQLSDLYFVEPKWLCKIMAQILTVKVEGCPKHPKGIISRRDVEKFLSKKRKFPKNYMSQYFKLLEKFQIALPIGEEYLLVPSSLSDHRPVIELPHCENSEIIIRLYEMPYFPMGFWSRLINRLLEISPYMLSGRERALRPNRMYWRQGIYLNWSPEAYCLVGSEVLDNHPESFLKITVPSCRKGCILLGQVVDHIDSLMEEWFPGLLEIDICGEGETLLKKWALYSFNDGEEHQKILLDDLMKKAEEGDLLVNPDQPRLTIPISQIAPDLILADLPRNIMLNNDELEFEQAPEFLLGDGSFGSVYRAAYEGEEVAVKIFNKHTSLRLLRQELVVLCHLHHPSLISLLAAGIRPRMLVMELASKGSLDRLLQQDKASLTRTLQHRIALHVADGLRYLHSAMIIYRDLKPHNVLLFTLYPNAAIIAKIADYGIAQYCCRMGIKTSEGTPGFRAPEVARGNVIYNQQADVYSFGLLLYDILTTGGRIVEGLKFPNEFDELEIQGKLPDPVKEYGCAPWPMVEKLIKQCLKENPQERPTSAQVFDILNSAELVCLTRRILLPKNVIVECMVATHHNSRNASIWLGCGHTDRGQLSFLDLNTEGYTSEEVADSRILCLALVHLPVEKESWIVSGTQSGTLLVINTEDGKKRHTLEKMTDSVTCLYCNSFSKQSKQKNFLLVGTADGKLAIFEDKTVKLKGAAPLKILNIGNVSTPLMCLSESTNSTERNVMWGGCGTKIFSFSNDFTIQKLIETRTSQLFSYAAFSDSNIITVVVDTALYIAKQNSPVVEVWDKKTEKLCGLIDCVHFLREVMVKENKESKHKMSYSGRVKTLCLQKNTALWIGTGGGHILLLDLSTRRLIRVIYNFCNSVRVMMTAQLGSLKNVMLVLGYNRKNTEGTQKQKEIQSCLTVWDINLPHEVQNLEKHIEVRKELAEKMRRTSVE
mutant G2019S LRRK2, sequence (Q5S007 970-2527 G2019S): as the sequence (Q5S007 970-2527) above, with G1050S counted along it

Consider `C[C@@H]1C[C@H](n2c(C3CCC(F)(F)C3)nc3cnc4ccc(Cl)cc4c32)CCO1` (stereo partly drawn) [Example 11, 8-chloro-2-(3,3-difluorocyclopentyl)-1-[(2R,4R)-2-methyltetrahydro-2H-pyran-4-yl]-1H-imidazo[4,5-c]quinoline], for which the values for the half-inhibitory concentration (IC50) (in test [1]; against mutant G2019S LRRK2) were 20.3 nM and 13.8 nM, respectively.
Turning to `C[C@@H]1C[C@H](n2c(C3COC3)nc3cnc4ccc(Cl)cc4c32)CCO1` [Example 12, 8-chloro-1-[(2R,4R)-2-methyltetrahydro-2H-pyran-4-yl]-2-(oxetan-3-yl)-1H-imidazo[4,5-c]quinoline], the figures for the half-maximal inhibitory concentration (IC50) (in test [1]; on mutant G2019S LRRK2) were 23 nM and 21.2 nM, respectively.
As to `C[C@@H]1C[C@H](n2c(C3CCC(F)C3)nc3cnc4ccc(C#N)cc4c32)CCO1` (stereo partly drawn) [Example 14, 2-[(cis)-3-fluorocyclopentyl]-1-[(2R,4R)-2-methyltetrahydro-2H-pyran-4-yl]-1H-imidazo[4,5-c]quinoline-8-carbonitrile], the IC50 (usually the concentration that gives 50% inhibition) in test [1] is 15.2 nM; on mutant G2019S LRRK2 it was 10.8 nM.
Taken in the same sequence, the figures for `C[C@@H]1C[C@H](n2c3c(cnc4ccc(C#N)cc43)nc2[C@H]2CC[C@@H](F)CC2)CCO1` [Example 15, 2-(cis-4-fluorocyclohexyl)-1-[(2R,4R)-2-methyltetrahydro-2H-pyran-4-yl]-1H-imidazo[4,5-c]quinoline-8-carbonitrile] were 6.75 nM and 8.3 nM.
`C[C@@H]1C[C@H](n2c([C@H]3CCOC3)nc3cnc4ccc(C#N)cc4c32)CCO1` [Example 16, 1-[(2R,4R)-2-methyltetrahydro-2H-pyran-4-yl]-2-[(3R)-tetrahydrofuran-3-yl]-1H-imidazo[4,5-c]quinoline-8-carbonitrile]: the IC50 in test [1] is 16.2 nM; against mutant G2019S LRRK2, 10.6 nM.
As to `C[C@@H]1C[C@H](n2c(C3CCC(F)(F)CC3)nc3cnc4ccc(C#N)cc4c32)CCO1` [Example 17, 2-(4,4-difluorocyclohexyl)-1-[(2R,4R)-2-methyltetrahydro-2H-pyran-4-yl]-1H-imidazo[4,5-c]quinoline-8-carbonitrile], the concentration for half-maximal inhibition (IC50) in test [1] came to 15.6 nM; at mutant G2019S LRRK2, 11.2 nM.
Taken in the same sequence, the figures for `C[C@@H]1C[C@H](n2c3c(cnc4ccc(C#N)cc43)nc2[C@H]2C[C@@](C)(F)C2)CCO1` [Example 18, 2-(cis-3-fluoro-3-methylcyclobutyl)-1-[(2R,4R)-2-methyltetrahydro-2H-pyran-4-yl]-1H-imidazo[4,5-c]quinoline-8-carbonitrile] were 10.4 nM and 8.4 nM.
On to `C[C@@H]1C[C@H](n2c3c(cnc4ccc(C#N)cc43)nc2[C@H]2C[C@@H](F)C2)CCO1` [Example 19, 2-(cis-3-fluorocyclobutyl)-1-[(2R,4R)-2-methyltetrahydro-2H-pyran-4-yl]-1H-imidazo[4,5-c]quinoline-8-carbonitrile], for which the IC50 in test [1] worked out at 16.1 nM; at mutant G2019S LRRK2, 12.4 nM.
In the case of `C[C@@H]1C[C@H](n2c(C3CCCCC3(F)F)nc3cnc4ccc(C#N)cc4c32)CCO1` (stereo partly drawn) [Example 20, 2-(2,2-difluorocyclohexyl)-1-[(2R,4R)-2-methyltetrahydro-2H-pyran-4-yl]-1H-imidazo[4,5-c]quinoline-8-carbonitrile], the figures for the concentration for half-maximal inhibition (IC50) (in test [1]; on mutant G2019S LRRK2) were 17.7 nM and 10.4 nM, respectively.
As to `CN1CC[C@@H](n2c3c(cnc4ccc(C#N)cc43)nc2[C@H]2C[C@@](C)(F)C2)C1` [Example 22, 2-(cis-3-fluoro-3-methylcyclobutyl)-1-[(3R)-1-methylpyrrolidin-3-yl]-1H-imidazo[4,5-c]quinoline-8-carbonitrile], the IC50 is 14.2 nM in test [1] and 36.5 nM against mutant G2019S LRRK2.
On to `CN1CC[C@@H](n2c3c(cnc4ccc(C#N)cc43)nc2[C@H]2CC[C@@H](F)CC2)C1` [Example 23, 2-(cis-4-fluorocyclohexyl)-1-[(3R)-1-methylpyrrolidin-3-yl]-1H-imidazo[4,5-c]quinoline-8-carbonitrile], for which the half-maximal inhibitory concentration (IC50) in test [1] is 10.9 nM; against mutant G2019S LRRK2, 33 nM.
The like results for `CN1CC[C@@H](n2c3c(cnc4ccc(C#N)cc43)nc2[C@H]2C[C@@H](F)C2)C1` [Example 24, 2-(cis-3-fluorocyclobutyl)-1-[(3R)-1-methylpyrrolidin-3-yl]-1H-imidazo[4,5-c]quinoline-8-carbonitrile] were, in that order, 5.27 nM and 22.4 nM.
Regarding `CN1CC[C@@H](n2c([C@H]3CCOC3)nc3cnc4ccc(C#N)cc4c32)C1` [Example 25, 1-[(3R)-1-methylpyrrolidin-3-yl]-2-[(3R)-tetrahydrofuran-3-yl]-1H-imidazo[4,5-c]quinoline-8-carbonitrile], the 50% inhibitory concentration (IC50) in test [1] stood at 32.5 nM; at mutant G2019S LRRK2, 80 nM.
Taken in the same sequence, the figures for `C[C@@H]1C[C@H](n2c([C@H]3CCOC3)nc3cnc4ccc(C(F)(F)F)cc4c32)CCO1` [Example 26, 1-[(2R,4R)-2-methyltetrahydro-2H-pyran-4-yl]-2-[(3R)-tetrahydrofuran-3-yl]-8-(trifluoromethyl)-1H-imidazo[4,5-c]quinoline] were 9.79 nM and 5.71 nM.
Take `N#CC[C@@H]1C[C@H](n2c3c(cnc4ccc(Cl)cc43)nc2[C@H]2CC[C@@H](F)CC2)CCO1` [Example 28, {(2S,4R)-4-[8-chloro-2-(cis-4-fluorocyclohexyl)-1H-imidazo[4,5-c]quinolin-1-yl]tetrahydro-2H-pyran-2-yl}acetonitrile]: the IC50 is 9.71 nM in test [1] and 5.12 nM against mutant G2019S LRRK2.
For the compound `N#CC[C@@H]1C[C@H](n2c3c(cnc4ccc(F)cc43)nc2[C@H]2CC[C@@H](F)CC2)CCO1` [Example 29, {(2S,4R)-4-[8-fluoro-2-(cis-4-fluorocyclohexyl)-1H-imidazo[4,5-c]quinolin-1-yl]tetrahydro-2H-pyran-2-yl}acetonitrile], the IC50 in test [1] was determined as 6.53 nM; at mutant G2019S LRRK2, 4.63 nM.
As to `N#CCC1CC(n2c([C@H]3CCOC3)nc3cnc4ccc(Cl)cc4c32)CCO1` (stereo partly drawn) [Example 30, [cis-4-{8-chloro-2-[(3R)-tetrahydrofuran-3-yl]-1H-imidazo[4,5-c]quinolin-1-yl}tetrahydro-2H-pyran-2-yl]acetonitrile], the IC50 is 6.06 nM in test [1] and 3.02 nM against mutant G2019S LRRK2.
As to `CN1CC[C@@H](n2c(C3CCC(F)C3)nc3cnc4ccc(C#N)cc4c32)C1` (stereo partly drawn) [Example 32, 2-[cis-3-fluorocyclopentyl]-1-[(3R)-1-methylpyrrolidin-3-yl]-1H-imidazo[4,5-c]quinoline-8-carbonitrile], the half-inhibitory concentration (IC50) was 19.6 nM in test [1] and 37.9 nM on mutant G2019S LRRK2.
For `CN1CC[C@@H](n2c(C3CCC(F)C3)nc3cnc4ccc(C#N)cc4c32)C1` (stereo partly drawn) [Example 33, 2-[cis-3-fluorocyclopentyl]-1-[(3R)-1-methylpyrrolidin-3-yl]-1H-imidazo[4,5-c]quinoline-8-carbonitrile], the figures for the 50% inhibitory concentration (IC50) (in test [1]; on mutant G2019S LRRK2) were 6.56 nM and 4.3 nM, respectively.
Turning to `CN1CC[C@@H](n2c(C3CCC(F)C3)nc3cnc4ccc(F)cc4c32)C1` (stereo partly drawn) [Example 34, 8-fluoro-2-[cis-3-fluorocyclopentyl]-1-[(3R)-1-methylpyrrolidin-3-yl]-1H-imidazo[4,5-c]quinoline], the IC50 in test [1] amounted to 59.6 nM; against mutant G2019S LRRK2 it was 77 nM.
Turning to `CC1(C)CC(n2c(C3CCC(F)C3)nc3cnc4ccc(C#N)cc4c32)CCO1` (stereo not drawn) [Example 39, 1-(2,2-dimethyltetrahydro-2H-pyran-4-yl)-2-(3-fluorocyclopentyl)-1H-imidazo[4,5-c]quinoline-8-carbonitrile], the IC50 in test [1] is 4.65 nM; at mutant G2019S LRRK2 it was 4.41 nM.
On to `CC1(C)CC(n2c(C3CCC(F)C3)nc3cnc4ccc(C#N)cc4c32)CCO1` (stereo not drawn) [Example 40, 1-(2,2-dimethyltetrahydro-2H-pyran-4-yl)-2-(3-fluorocyclopentyl)-1H-imidazo[4,5-c]quinoline-8-carbonitrile], for which the IC50 in test [1] stood at 7.14 nM; against mutant G2019S LRRK2, 4.33 nM.
In the case of `CC1(C)CC(n2c(C3CCC(F)C3)nc3cnc4ccc(C#N)cc4c32)CCO1` (stereo not drawn) [Example 41, 1-(2,2-dimethyltetrahydro-2H-pyran-4-yl)-2-(3-fluorocyclopentyl)-1H-imidazo[4,5-c]quinoline-8-carbonitrile], the IC50 in test [1] came out at 64.1 nM; on mutant G2019S LRRK2, 49.6 nM.
Take `CC1(C)CC(n2c(C3CCC(F)C3)nc3cnc4ccc(C#N)cc4c32)CCO1` (stereo not drawn) [Example 42, 1-(2,2-dimethyltetrahydro-2H-pyran-4-yl)-2-(3-fluorocyclopentyl)-1H-imidazo[4,5-c]quinoline-8-carbonitrile]: the results for the IC50 (in test [1]; on mutant G2019S LRRK2) were 46.1 nM and 46 nM, respectively.
